Source: patent publication US10588317B2, “Isoxazoline-substituted benzamides and analogues as insecticides” (priority 2015, dated 2020)
Where two headings read alike, the source gives them in different places.

What was measured:
Type in all cases: in vivo
Tetranychus urticae = Tetranychus urticae (two-spotted spider mite): feeding/contact activity; settings: 192 h
Procedure: Bean leaf discs on agar in 24-well microtiter plates were sprayed with aqueous test solutions prepared from 10'000 ppm DMSO stock solutions. After drying the leaf discs were infested with a mite population of mixed ages. The samples were assessed for mortality on mixed population (mobile stages) 8 days after infestation.

Myzus persicae = Myzus persicae (green peach aphid): feeding/contact activity; settings: 144 h
Procedure: (§1) Sunflower leaf discs were placed onto agar in a 24-well microtiter plate and sprayed with aqueous test solutions prepared from 10'000 ppm DMSO stock solutions. After drying, the leaf discs were infested with an aphid population of mixed ages. The samples were assessed for mortality 6 days after infestation.

Thrips tabaci = Thrips tabaci (onion thrips): feeding/contact activity; settings: 144 h
Procedure: as §1, with “on” for “onto”, “in” for “in a”, “plates” for “plate”, “drying” for “drying,”, “a Thrips” for “an aphid”

Plutella xylostella = Plutella xylostella (diamond back moth), artificial diet; settings: 120 h, read-out: effect in at least one of the two categories (mortality or growth inhibition); for percent effect (mortality or growth inhibition) at 200 ppm: application rate 200 ppm, L2 larvae, 5 days after infestation
Method in brief: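 L2 larvae (10-15 per well) fed on compound-treated, dried artificial diet; test solutions diluted in water from 10'000 ppm DMSO stocks. Readout 5 days post-infestation as mortality or growth inhibition versus untreated diet, with at least 80% effect at 200 ppm as threshold.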

Diabrotica balteata = Diabrotica balteata (corn root worm), sprayed maize sprouts; settings: 96 h, read-out: effect in at least one of the two categories (mortality or growth inhibition); for percent effect (mortality or growth inhibition) at 200 ppm: application rate 200 ppm, L2 larvae, 4 days after infestation
Method in brief: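 Read-out at 4 days post-infestation: mortality and growth inhibition relative to untreated samples. Test solutions (200 ppm, from DMSO stocks) were sprayed onto agar-held maize sprouts, which after drying received 6–10 L2 larvae per well.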

Spodoptera littoralis = Spodoptera littoralis (Egyptian cotton leaf worm), sprayed cotton leaf discs; settings: foliar, 72 h, read-out: control (mortality, anti-feeding effect, growth inhibition)
Method in brief: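 Five first-instar larvae placed on dried cotton leaf discs (on agar) previously sprayed with aqueous dilutions of 10'000 ppm DMSO stocks. Scored at 3 days against untreated discs for mortality, feeding inhibition and growth inhibition; any category above untreated counts as control.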

Euschistus heros = Euschistus heros (neotropical brown stink bug), sprayed soybean leaves; settings: 120 h, read-out: effect in at least one of the two categories (mortality or growth inhibition); for percent effect (mortality or growth inhibition) at 200 ppm: application rate 200 ppm, N2 nymphs, 5 days after infestation
Method in brief: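 Scored 5 days post-infestation versus untreated controls, for both mortality and growth inhibition: N2 nymphs placed on agar-mounted soybean leaves previously sprayed at 200 ppm with aqueous test solutions from DMSO stocks and left to dry.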

[1] = application rate 200 ppm, mixed population (mobile stages), 8 days after infestation, read-out: mortality
[2] = application rate 200 ppm, aphid population of mixed ages, 6 days after infestation, read-out: mortality
[3] = application rate 200 ppm, Thrips population of mixed ages, 6 days after infestation, read-out: mortality
[4] = application rate 200 ppm, L1 larvae, 3 days after infestation

Cc1cc(C2=NO[C@@](c3cc(Cl)cc(Cl)c3)(C(F)(F)F)C2)ccc1C(=O)N[C@@H]1CON(S(N)(=O)=O)C1 [Compound A178, 4-[(5S)-5-(3,5-dichlorophenyl)-5-(trifluoromethyl)-4H-1,2-oxazol-3-yl]-2-methyl-N-[(4S)-2-sulfamoyl-1,2-oxazolidin-4-yl]benzamide]
≥ 80%: mortality at 200 ppm (Tetranychus urticae; [1]) | mortality at 200 ppm (Myzus persicae; [2]) | mortality at 200 ppm (Thrips tabaci; [3]) | percent effect (mortality or growth inhibition) at 200 ppm (Plutella xylostella) | percent effect (mortality or growth inhibition) at 200 ppm (Diabrotica balteata) | mortality at 200 ppm (Spodoptera littoralis; [4]) | percent effect (mortality or growth inhibition) at 200 ppm (Euschistus heros)

Cc1cc(C2=NO[C@@](c3cc(Cl)c(F)c(Cl)c3)(C(F)(F)F)C2)ccc1C(=O)NC1CON(S(N)(=O)=O)C1 (stereo partly drawn) [Compound A71]
≥ 80%: mortality at 200 ppm (Tetranychus urticae; [1]) | mortality at 200 ppm (Myzus persicae; [2]) | mortality at 200 ppm (Thrips tabaci; [3]) | percent effect (mortality or growth inhibition) at 200 ppm (Plutella xylostella) | percent effect (mortality or growth inhibition) at 200 ppm (Diabrotica balteata) | mortality at 200 ppm (Spodoptera littoralis; [4]) | percent effect (mortality or growth inhibition) at 200 ppm (Euschistus heros)

CCCN(C)S(=O)(=O)N1CC(NC(=O)c2ccc(C3=NO[C@@](c4cc(Cl)c(Cl)c(Cl)c4)(C(F)(F)F)C3)cc2C)CO1 (stereo partly drawn) [Compound A84, 2-methyl-N-[2-[methyl(propyl)sulfamoyl]isoxazolidin-4-yl]-4-[(5S)-5-(3,4,5-trichlorophenyl)-5-(trifluoromethyl)-4H-isoxazol-3-yl]benzamide]
≥ 80%: mortality at 200 ppm (Tetranychus urticae; [1]) | mortality at 200 ppm (Myzus persicae; [2]) | mortality at 200 ppm (Thrips tabaci; [3]) | percent effect (mortality or growth inhibition) at 200 ppm (Plutella xylostella) | percent effect (mortality or growth inhibition) at 200 ppm (Diabrotica balteata) | mortality at 200 ppm (Spodoptera littoralis; [4]) | percent effect (mortality or growth inhibition) at 200 ppm (Euschistus heros)

Cc1cc(C2=NO[C@](c3cc(Cl)c(F)c(Cl)c3)(C(F)(F)F)C2)ccc1C(=O)N[C@H]1CON(S(=O)(=O)CF)C1 [Compound A211]
≥ 80%: mortality at 200 ppm (Tetranychus urticae; [1]) | mortality at 200 ppm (Myzus persicae; [2]) | mortality at 200 ppm (Thrips tabaci; [3]) | percent effect (mortality or growth inhibition) at 200 ppm (Plutella xylostella) | percent effect (mortality or growth inhibition) at 200 ppm (Diabrotica balteata) | mortality at 200 ppm (Spodoptera littoralis; [4]) | percent effect (mortality or growth inhibition) at 200 ppm (Euschistus heros)

Cc1cc(C2=NO[C@](c3cc(Cl)cc(Cl)c3)(C(F)(F)F)C2)ccc1C(=O)N[C@H]1CON(S(=O)(=O)CCl)C1 [Compound A166, N-[(4R)-2-(chloromethylsulfonyl)-1,2-oxazolidin-4-yl]-4-[(5R)-5-(3,5-dichlorophenyl)-5-(trifluoromethyl)-4H-1,2-oxazol-3-yl]-2-methylbenzamide]
≥ 80%: mortality at 200 ppm (Tetranychus urticae; [1]) | mortality at 200 ppm (Myzus persicae; [2]) | mortality at 200 ppm (Thrips tabaci; [3]) | percent effect (mortality or growth inhibition) at 200 ppm (Plutella xylostella) | percent effect (mortality or growth inhibition) at 200 ppm (Diabrotica balteata) | mortality at 200 ppm (Spodoptera littoralis; [4]) | percent effect (mortality or growth inhibition) at 200 ppm (Euschistus heros)

COCCS(=O)(=O)N1CC(NC(=O)c2ccc(C3=NO[C@@](c4cc(Cl)c(F)c(Cl)c4)(C(F)(F)F)C3)cc2C)CO1 (stereo partly drawn) [Compound A18]
≥ 80%: mortality at 200 ppm (Tetranychus urticae; [1]) | mortality at 200 ppm (Myzus persicae; [2]) | mortality at 200 ppm (Thrips tabaci; [3]) | percent effect (mortality or growth inhibition) at 200 ppm (Plutella xylostella) | percent effect (mortality or growth inhibition) at 200 ppm (Diabrotica balteata) | mortality at 200 ppm (Spodoptera littoralis; [4]) | percent effect (mortality or growth inhibition) at 200 ppm (Euschistus heros)

CS(=O)(=O)N1CC(NC(=O)c2ccc(C3=NO[C@@](c4cc(Cl)c(Cl)c(Cl)c4)(C(F)(F)F)C3)cc2Cl)CO1 (stereo partly drawn) [Compound A15, 2-chloro-N-(2-methylsulfonylisoxazolidin-4-yl)-4-[(5S)-5-(3,4,5-trichlorophenyl)-5-(trifluoromethyl)-4H-isoxazol-3-yl]benzamide]
≥ 80%: mortality at 200 ppm (Tetranychus urticae; [1]) | mortality at 200 ppm (Myzus persicae; [2]) | mortality at 200 ppm (Thrips tabaci; [3]) | percent effect (mortality or growth inhibition) at 200 ppm (Plutella xylostella) | percent effect (mortality or growth inhibition) at 200 ppm (Diabrotica balteata) | mortality at 200 ppm (Spodoptera littoralis; [4]) | percent effect (mortality or growth inhibition) at 200 ppm (Euschistus heros)

Cc1cc(C2=NO[C@@](c3cc(Cl)c(F)c(Cl)c3)(C(F)(F)F)C2)ccc1C(=O)NC1CON(S(=O)(=O)C(C)C)C1 (stereo partly drawn) [Compound A17]
≥ 80%: mortality at 200 ppm (Tetranychus urticae; [1]) | mortality at 200 ppm (Myzus persicae; [2]) | mortality at 200 ppm (Thrips tabaci; [3]) | percent effect (mortality or growth inhibition) at 200 ppm (Plutella xylostella) | percent effect (mortality or growth inhibition) at 200 ppm (Diabrotica balteata) | mortality at 200 ppm (Spodoptera littoralis; [4]) | percent effect (mortality or growth inhibition) at 200 ppm (Euschistus heros)

Cc1cc(C2=NO[C@@](c3cc(Cl)c(F)c(Cl)c3)(C(F)(F)F)C2)ccc1C(=O)N[C@@H]1CON(S(=O)(=O)CC(=O)O)C1 [Compound A200]
≥ 80%: mortality at 200 ppm (Tetranychus urticae; [1]) | mortality at 200 ppm (Myzus persicae; [2]) | mortality at 200 ppm (Thrips tabaci; [3]) | percent effect (mortality or growth inhibition) at 200 ppm (Plutella xylostella) | percent effect (mortality or growth inhibition) at 200 ppm (Diabrotica balteata) | mortality at 200 ppm (Spodoptera littoralis; [4]) | percent effect (mortality or growth inhibition) at 200 ppm (Euschistus heros)

Cc1cc(C2=NO[C@](c3cc(Cl)cc(C(F)(F)F)c3)(C(F)(F)F)C2)ccc1C(=O)N[C@H]1CON(S(=O)(=O)F)C1 [Compound A219]
≥ 80%: mortality at 200 ppm (Tetranychus urticae) | mortality at 200 ppm (Myzus persicae) | mortality at 200 ppm (Thrips tabaci) | percent control (mortality or growth inhibition) at 200 ppm (Plutella xylostella) | percent control (mortality or growth inhibition) at 200 ppm (Diabrotica balteata) | mortality at 200 ppm (Spodoptera littoralis) | percent control (mortality or growth inhibition) at 200 ppm (Euschistus heros)

Cc1cc(C2=NO[C@@](c3cccc(C(F)(F)F)n3)(C(F)(F)F)C2)ccc1C(=O)N[C@H]1CON(S(C)(=O)=O)C1 [Compound A215]
≥ 80%: mortality at 200 ppm (Tetranychus urticae; [1]) | mortality at 200 ppm (Myzus persicae; [2]) | mortality at 200 ppm (Thrips tabaci; [3]) | percent effect (mortality or growth inhibition) at 200 ppm (Plutella xylostella) | percent effect (mortality or growth inhibition) at 200 ppm (Diabrotica balteata) | mortality at 200 ppm (Spodoptera littoralis; [4]) | percent effect (mortality or growth inhibition) at 200 ppm (Euschistus heros)

Cc1cc(C2=NO[C@@](c3cc(Cl)c(F)c(Cl)c3)(C(F)(F)F)C2)ccc1C(=O)N[C@@H]1CON(S(=O)(=O)C2CC2)C1 [Compound A228, N-[(4S)-2-cyclopropylsulfonyl-1,2-oxazolidin-4-yl]-4-[(5S)-5-(3,5-dichloro-4-fluorophenyl)-5-(trifluoromethyl)-4H-1,2-oxazol-3-yl]-2-methylbenzamide]
≥ 80%: mortality at 200 ppm (Tetranychus urticae; [1]) | mortality at 200 ppm (Myzus persicae; [2]) | mortality at 200 ppm (Thrips tabaci; [3]) | percent effect (mortality or growth inhibition) at 200 ppm (Plutella xylostella) | percent effect (mortality or growth inhibition) at 200 ppm (Diabrotica balteata) | mortality at 200 ppm (Spodoptera littoralis; [4]) | percent effect (mortality or growth inhibition) at 200 ppm (Euschistus heros)

CCN(C(=O)OC(C)(C)C)S(=O)(=O)N1CC(NC(=O)c2ccc(C3=NO[C@@](c4cc(Cl)c(F)c(Cl)c4)(C(F)(F)F)C3)cc2C)CO1 (stereo partly drawn) [Compound A93, tert-butyl N-[4-[[4-[(5S)-5-(3,5-dichloro-4-fluoro-phenyl)-5-(trifluoromethyl)-4H-isoxazol-3-yl]-2-methyl-benzoyl]amino]isoxazolidin-2-yl]sulfonyl-N-ethyl-carbamate]
≥ 80%: mortality at 200 ppm (Tetranychus urticae; [1]) | mortality at 200 ppm (Myzus persicae; [2]) | mortality at 200 ppm (Thrips tabaci; [3]) | percent effect (mortality or growth inhibition) at 200 ppm (Plutella xylostella) | percent effect (mortality or growth inhibition) at 200 ppm (Diabrotica balteata) | mortality at 200 ppm (Spodoptera littoralis; [4]) | percent effect (mortality or growth inhibition) at 200 ppm (Euschistus heros)

Cc1cc(C2=NO[C@@](c3cc(Cl)cc(C(F)(F)F)c3)(C(F)(F)F)C2)ccc1C(=O)N[C@@H]1CON(S(=O)(=O)C(F)F)C1 [Compound A233]
≥ 80%: mortality at 200 ppm (Tetranychus urticae; [1]) | mortality at 200 ppm (Myzus persicae; [2]) | mortality at 200 ppm (Thrips tabaci; [3]) | percent effect (mortality or growth inhibition) at 200 ppm (Plutella xylostella) | percent effect (mortality or growth inhibition) at 200 ppm (Diabrotica balteata) | mortality at 200 ppm (Spodoptera littoralis; [4]) | percent effect (mortality or growth inhibition) at 200 ppm (Euschistus heros)

Cc1cc(C2=NO[C@@](c3cc(Cl)c(F)c(Cl)c3)(C(F)(F)F)C2)ccc1C(=O)NC1CON(S(=O)(=O)CCCl)C1 (stereo partly drawn) [Compound A7, N-[2-(2-chloroethylsulfonyl)isoxazolidin-4-yl]-4-[(5S)-5-(3,5-dichloro-4-fluoro-phenyl)-5-(trifluoromethyl)-4H-isoxazol-3-yl]-2-methyl-benzamide]
≥ 80%: mortality at 200 ppm (Tetranychus urticae) | mortality at 200 ppm (Myzus persicae) | mortality at 200 ppm (Thrips tabaci) | percent control (mortality or growth inhibition) at 200 ppm (Plutella xylostella) | percent control (mortality or growth inhibition) at 200 ppm (Diabrotica balteata) | mortality at 200 ppm (Spodoptera littoralis) | percent control (mortality or growth inhibition) at 200 ppm (Euschistus heros)
